Results as given in ChEMBL document CHEMBL5390263, “Direct evaluation of polarity of the ligand binding pocket in retinoid X receptor using a fluorescent solvatochromic agonist” (Bioorg Med Chem Lett, 2023).
The source made the active and inactive calls. No cut-off for these calls is given here.

Key:
[1] = molecular target: T1, Retinoic acid receptor RXR-alpha (Homo sapiens) (UniProt P19793); assay: Binding affinity to RXRalpha-LBD (unknown origin) assessed as fluorescence intensity by measuring maximum excitation wavelength from 382 to 440 nm at 5 to 20 uM in the presence of bexarotene by FRET assay; settings: dose 5-20 µM
T1 sequence (whole entry): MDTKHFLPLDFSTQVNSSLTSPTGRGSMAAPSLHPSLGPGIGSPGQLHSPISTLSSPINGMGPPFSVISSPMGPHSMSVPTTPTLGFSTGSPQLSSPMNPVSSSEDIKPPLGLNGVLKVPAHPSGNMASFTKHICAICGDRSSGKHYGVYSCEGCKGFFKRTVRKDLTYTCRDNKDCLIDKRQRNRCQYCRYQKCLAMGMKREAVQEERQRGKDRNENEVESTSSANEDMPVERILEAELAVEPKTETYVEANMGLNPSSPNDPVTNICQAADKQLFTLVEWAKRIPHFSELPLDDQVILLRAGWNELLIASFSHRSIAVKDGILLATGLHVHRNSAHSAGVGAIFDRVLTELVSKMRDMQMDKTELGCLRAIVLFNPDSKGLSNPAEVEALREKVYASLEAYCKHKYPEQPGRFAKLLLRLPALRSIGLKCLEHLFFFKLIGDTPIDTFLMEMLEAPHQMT

[2] = molecular target: T1, Retinoic acid receptor RXR-alpha (Homo sapiens); assay: Binding affinity to RXR alpha-LBD (unknown origin) assessed as increase in fluorescence intensity up to 16 uM by FRET assay; settings: filed as agonist
[3] = molecular target: T1, Retinoic acid receptor RXR-alpha (Homo sapiens); assay: Binding affinity to RXRalpha-LBD (unknown origin) assessed as increase in fluorescence intensity by measuring maximum excitation of 440 nm wavelength at 16 uM by FRET assay; settings: filed as agonist
[4] = molecular target: T1, Retinoic acid receptor RXR-alpha (Homo sapiens); assay: Binding affinity to RXRalpha-LBD (unknown origin) assessed as increase in fluorescence intensity by measuring maximum excitation wavelength from 382 to 440 nm by FRET assay; settings: filed as agonist, dose <= 16.0 µM
[5] = molecular target: T2, Retinoic acid receptor RXR-alpha (Homo sapiens, UniProt P19793); assay: Binding affinity to RXRalpha-LBD (unknown origin) assessed as dissociation constant by FRET assay
T2 sequence (P19793 whole entry): T1 sequence (whole entry)

[6] = molecular target: T2, Retinoic acid receptor RXR-alpha; assay: Binding affinity to RXRalpha-LBP (unknown origin) assessed as dissociation constant by FRET assay

**Q.** With `CCN(c1ccc2c(C(F)(F)F)cc(=O)n(CC(C)C)c2c1)c1ccc(C(=O)O)cn1` as the compound, how does the Activity [1] read?
**A.** inactive

**Q.** And the Activity [2]?
**A.** Active

**Q.** And the Activity [3]?
**A.** Active

**Q.** What about the Activity [4] of the same compound?
**A.** Dose-Dependent Effect

**Q.** What about the Kd [5] of the same compound?
**A.** 6.3 µM

**Q.** What about the Kd [6] of the same compound?
**A.** 10.9 µM
